These results are taken from patent US20190201508A1, “METHODS FOR TREATING CANCERS USING ACE INHIBITORS, ARB, OR CELECOXIB AND OLMESARTAN” (Marina Biotech, Inc., priority 2016, published 2019).

The test system of assay [1] is inflammatory breast cancer/SUM149, melanoma/MDA-MB-435 and glioblastoma/U87 xenografts. Briefly: Tumor growth suppression across xenograft models (pooled statements). The format is in vivo, mice. The conditions noted are these: for effect on tumor growth (in words): single agents, cancer models studied (breast cancer, melanoma, glioblastoma). As for the experimental part: (§1) Luciferase-tagged SUM149 and MDA-MB-435 cell lines were used to determine the incidence and the burden of locoregional and systemic spread. Mice were monitored twice a week for 9-16 weeks for percent weight loss, tumor volume and survival outcome. Metastatic tumor burden and incidence was measured as luciferase expression in lymph nodes and lungs and normalized to total protein.
Subcutaneous melanoma xenograft tumor model: MDA-MB-435-Luc: Female SCID mice were implanted with 4×10^6 MDA-MB-435-Luciferase tumor cells in 50% Matrigel subcutaneously on the left flank.
Orthotopic human inflammatory breast cancer model: SUM149-RR: Female CB-17 SCID mice were implanted in the mammary fat pad with 4×10^6 SUM149-RR tumor cells in 50% Matrigel.
T/C (%) was calculated as the mean RTV (relative tumor volume) of treated tumors (T) divided by the mean RTV of control tumors (C)×100%.
(§2) Tumors were monitored 2-3 times per week with digital calipers. Once tumors reached 1500 mm3, the mice were sacrificed. Tumors from MDA-MB-435-Luc and SUM149-RR were snap frozen and ipsilateral lymph nodes and lungs were collected for assessing metastatic burden and incidence by measuring luciferase expression per organ and normalized to total protein. Difference in incidence or burden as compared to the control was assessed by a Fisher exact test, or a Mann-Whitney test.
(§3) Methods: Three anti-hypertensive drugs (Lisinopril [LIS], Olmesartan medoxomil [OLM] and Hydrochlorothiazide [HCTZ]) were evaluated for tumor growth suppression and metastatic spread in xenograft models of inflammatory breast cancer/SUM149, melanoma/MDA-MB-435 and glioblastoma/U87. Luciferase-tagged SUM149 and MDA-MB-435 cell lines were used to determine the incidence and the burden of locoregional and systemic spread. CB-17 SCID mice were implanted either subcutaneously (MDA-MB-435 and U87) or orthotopically (SUM149) with 4×10^6 cancer cells and oral administration of test agents for 3 weeks was initiated on post-tumor inoculation Day 7. Mice were monitored twice a week for 9-16 weeks for percent weight loss, tumor volume and survival outcome. Metastatic tumor burden and incidence was measured as luciferase expression in lymph nodes and lungs and normalized to total protein.
Subcutaneous human melanoma xenograft tumor model: MDA-MB-435-Luciferase: Female SCID mice were implanted with 4×10^6 MDAMB-435-Luc tumor cells in 50% Matrigel subcutaneously on the left flank. Seven days post implantation, tumor-bearing mice in subgroups received either saline, Lisinopril (LIS, 15 mg/kg), Olmesartan (OLM, 30 mg/kg); or Hydrochlorothiazide (HCTZ, 10 mg/kg) for 5 consecutive days for 3 weeks.
Female CB-17 SCID mice were implanted in the mammary fat pad with 4×10^6 SUM149-RR tumor cells in 50% Matrigel. Seven days post implantation, mice in subgroups of 5 received either saline, LIS (15 mg/kg), OLM (30 mg/kg) or HCTZ (10 mg/kg) for 5 days/wk for 3 weeks.
Subcutaneous human U87-MG glioblastoma model: 3×10^6 U87 glioblastoma cells were injected into the right flank of Balb/c nude mice and tumor-bearing (50-250 mm3) mice were randomized into 10 groups (10 mice/group) and the antitumor activities of OLM were evaluated following daily PO administration (30 or 60 mg/kg, QD×21). T/C (%) was calculated as the mean RTV (relative tumor volume) of treated tumors (T) divided by the mean RTV of control tumors (C)×100%.
(§4) Tumors were monitored 2-3 times per week with digital calipers. Once tumors reached 1500 mm3, the mice were sacrificed. The tumor was snap frozen and ipsilateral lymph nodes and lungs were collected for assessing metastatic burden and incidence by measuring luciferase expression per organ and normalized to total protein. Difference in incidence or burden as compared to the control was assessed by a Fisher exact test, or a Mann-Whitney test.

The next assay has as its system SUM149-RR tumor cells. Briefly: Orthotopic human inflammatory breast cancer model SUM149-RR, lymph node metastatic burden (luciferase). The conditions noted are these: for change in ILN burden versus control (in words): single agents or combination with CEL. The format is in vivo, CB-17 SCID mice. As for the experimental part: as §1, §2
as §3, with “CB-17 SCID mice were implanted either subcutaneously (MDA-MB-435 and U87) or orthotopically (SUM149) with 4×10^6 cancer cells and oral administration of test agents for 3 weeks was initiated on post-tumor inoculation Day 7.” left out
Seven days post implantation, mice in subgroups of 5 received either saline, LIS (15 mg/kg), OLM (30 mg/kg) or HCTZ (10 mg/kg) for 5 days/wk for 3 weeks.
as §4

The subject of another assay is tumor blood vessels (BV). Briefly: Tumor blood vessel density and normalization (FIG. 6A/6B). The format is in vivo. The conditions noted are these: control tumors had low BV density and necrosis.
The subject of another assay is MDA-MB-435 xenograft. Briefly: MDA-MB-435 xenograft tumor growth and tumor burden. The format is in vivo, CB-17 SCID mice. The conditions noted are these: MDA-MB-435 model; LIS 15 mg/kg, 5 consecutive days for 3 weeks. As for the experimental part:
as §2
as §3, with “CB-17 SCID mice were implanted either subcutaneously (MDA-MB-435 and U87) or orthotopically (SUM149) with 4×10^6 cancer cells and oral administration of test agents for 3 weeks was initiated on post-tumor inoculation Day 7.” left out
Tumors were monitored 2-3 times per week with digital calipers. Once tumors reached 1500 mm3, the mice were sacrificed.

Each structure is given as a SMILES string.

`CCCc1nc(C(C)(C)O)c(C(=O)OCc2oc(=O)oc2C)n1Cc1ccc(-c2ccccc2-c2nn[nH]n2)cc1` [OLM, (5-methyl-2-oxo-2H-1,3-dioxol-4-yl)methyl 4-(2-hydroxypropan-2-yl)-2-propyl-1-({4-[2-(2H-1,2,3,4-tetrazol-5-yl)phenyl]phenyl}methyl)-1H-imidazole-5-carboxylate]: the “inhibition of tumor growth” value in assay [1] (range over all three xenograft models (SUM149, MDA-MB-435, U87)) is on record as 50-61%. Also, the “effect on tumor growth (in words)” value in assay [1] is recorded as “significant inhibition of tumor growth”; in assay [1] (listed as olmesartan), “showed tumor growth suppression”. Further, in the assay on SUM149-RR tumor cells (OLM 30 mg/kg alone), the “fold decrease in ILN tumor burden versus saline control” value amounted to 7.1 fold. The “average tumor burden in the ipsilateral lymph nodes (ILN)” value in the assay on SUM149-RR tumor cells (OLM 30 mg/kg, saline control 17.6±8.6, p-value=0.01 by Mann-Whitney test) is on record as 2.4±0.6 ×104 RLU per mg of protein. In the assay with SUM149-RR tumor cells (OLM versus control 17.6±8.6, P=0.01), the lymph node burden is listed as 2.4±0.6 ×10^4 RLU/mg of protein. For the same molecule, the “change in ILN burden versus control (in words)” value with SUM149-RR tumor cells is given as “statistically significant decrease in ILN burden”. Also, the “effect on tumor blood vessels (BV)” value was “facilitated the normalization and stabilization of tumor BVs” with tumor blood vessels (BV) (FIG. 6A, single agents); “facilitated the normalization and stabilization of tumor BVs” in the assay on tumor blood vessels (BV) (FIG. 6B, in combination).

Regarding `NCCCC[C@H](N[C@@H](CCc1ccccc1)C(=O)O)C(=O)N1CCC[C@H]1C(=O)O` [LIS, Lisinopril], the figures for the “effect on tumor growth (in words)” value in assay [1] and in assay [1] (listed as Lisinopril) were “significant inhibition of tumor growth” and “showed tumor growth suppression”, respectively. For the same molecule, the “reduction in tumor burden” value with MDA-MB-435 xenograft is recorded as “significant reduction in tumor burden”. Further, the “effect on tumor blood vessels (BV)” value in the assay with tumor blood vessels (BV) (FIG. 6A, single agents) is reported as “no major effect”; with tumor blood vessels (BV) (FIG. 6B, in combination), “no major effect”.

Consider `NS(=O)(=O)c1cc2c(cc1Cl)NCNS2(=O)=O` [HCTZ, Hydrochlorothiazide], for which the “effect on tumor growth (in words)” value in assay [1] is “no effect on tumor growth”; in assay [1] (listed as HTCZ), “did not show the same effect”. The “change in ILN burden versus control (in words)” value in the assay with SUM149-RR tumor cells is on record as “not”.
